Measurements taken from US20230348459A1, “PYRROLIDINE COMPOUND AND USE THEREOF” (SIMCERE PHARMACEUTICAL CO., LTD., priority 2020, published 2023).

Assays:
Format in all cases: in vitro ADME
CYP2D6 = CYP2D6 (Homo sapiens (Human), UniProt P10635); assay: Inhibition of CYP2D6 enzymatic activity in human liver microsomes; conditions: substrate dextromethorphan
Protocol: The inhibition of CYP2C9 and CYP2D6 enzymatic activities by the compounds of the present invention was determined by the following test method.
• 1. Human liver microsomes (Corning 452117) • 2. NADPH (Solarbio 705Y021) • 3. Positive substrates diclofenac (Sigma SLBV3438), dextromethorphan (TRC 3-EDO-175-1) and midazolam (Cerilliant FE01161704) • 4. Positive inhibitors sulfaphenazole (D. Ehrenstorfer GmbH 109012), quinidine (TCI WEODL-RE) and ketoconazole (Sigma 100M1091V) • 5. AB Sciex Triple Quad 5500 liquid chromatography-mass spectrometry
1. Preparation of 100 mM phosphate buffered saline (PBS): 7.098 g of Na2HPO4 was weighed, 500 mL of pure water was added and subjected to ultrasonic dissolution to obtain solution A. 3.400 g of KH2PO4 was weighed, 250 mL of pure water was added and subjected to ultrasonic dissolution to obtain solution B. Solution A was placed on a stirrer and solution B was slowly added until pH reaches 7.4 to prepare 100 mM PBS buffer.
2. Preparation of 10 mM NADPH solution with 100 mM PBS buffer. 10 mM stock solution of compounds of the invention was diluted with DMSO to obtain a 200× concentration of compound working solution (6000, 2000, 600, 200, 60, 20, 0 µM). The stock solution of positive inhibitors was diluted with DMSO to obtain a 200× concentration of positive inhibitor working solution (sulfaphenazole, 1000, 300, 100, 30, 10, 3, 0 µM; quinidine/ketoconazole, 100, 30, 10, 3, 1, 0.3, 0 µM). A 200 × concentration of substrate working solution (120 µM of diclofenac, 400 µM of dextromethorphan, and 200 µM of midazolam) was prepared in water, acetonitrile, or acetonitrile/methanol.
3. 2 µl of 20 mg/ml liver microsome solution, 1 µl of substrate working solution, 1 µl of compound working solution and 176 µl of PBS buffer were taken, mixed uniformly, and pre-incubated in a 37° C. water bath for 15 minutes. […]
The IC50 values of the compounds of the present invention against CYP2C9 and CYP2D6 were calculated by Excel XLfit 5.3.1.3.

[1] = Plasma protein binding rate, equilibrium dialysis, mouse plasma; conditions: pH 7.4, CD-1 mouse plasma, 6 hours dialysis
Protocol: (§1) The protein binding rate of the compounds of the present invention in the plasma of five species (human, monkey, dog, rat and mouse) was determined by the following test method.
(§2) • 1. Human plasma (BioIVT), beagle dog plasma (BioIVT), SD rat plasma (BioIVT), CD-1 mouse plasma (BioIVT); • 2. 96-well equilibrium dialysis plate (HTDialysis LLC, Gales Ferry, CT, HTD96B), equilibrium dialysis membrane (MWCO 12-14 K, #1101); • 3. Positive control compound warfarin; • 4. ABI QTrap 5500 liquid chromatography-mass spectrometry.
(§3) 1. Preparation of a buffer with a concentration of 100 mM sodium phosphate and 150 mM NaCl: an alkaline solution with a concentration of 14.2 g/L Na2HPO4 and 8.77 g/L NaCl was prepared with ultrapure water, and an acidic solution with a concentration of 12.0 g/L NaH2PO4 and 8.77 g/L NaCl was prepared with ultrapure water. The alkaline solution was titrated with the acidic solution to pH 7.4 to prepare a buffer with a concentration of 100 mM sodium phosphate and 150 mM NaCl.
(§4) 2. Preparation of dialysis membrane: the dialysis membrane was soaked in ultrapure water for 60 minutes to separate the membrane into two pieces, then soaked in 20% ethanol for 20 minutes, and finally soaked in the buffer used for dialysis for 20 minutes.
(§5) 3. Preparation of plasma: the frozen plasma was quickly thawed at room temperature, then the plasma was centrifuged at 3,220 g at 4° C. for 10 min to remove clots, and the supernatant was collected into a new centrifuge tube. The pH of the plasma was measured and recorded, and the plasma with pH of 7-8 was used.
(§6) 3. Preparation of compound-containing plasma samples: 10 mM stock solution of compounds of the present invention or positive control compounds were diluted with DMSO to obtain 200 µM working solution. […]
(§7) The peak areas of the compounds on the buffer side and the plasma side were determined. […]
(§8) All the data was calculated by the Microsoft Excel software. The plasma protein binding rate values of the compounds of the present invention were calculated.

[2] = Plasma protein binding rate, equilibrium dialysis, monkey plasma; conditions: pH 7.4, Cynomolgus monkey plasma, 6 hours dialysis
Protocol: as §1, §2, §3, §4, §5, §6, §7, §8

Sequence of CYP2D6 (P10635 whole entry): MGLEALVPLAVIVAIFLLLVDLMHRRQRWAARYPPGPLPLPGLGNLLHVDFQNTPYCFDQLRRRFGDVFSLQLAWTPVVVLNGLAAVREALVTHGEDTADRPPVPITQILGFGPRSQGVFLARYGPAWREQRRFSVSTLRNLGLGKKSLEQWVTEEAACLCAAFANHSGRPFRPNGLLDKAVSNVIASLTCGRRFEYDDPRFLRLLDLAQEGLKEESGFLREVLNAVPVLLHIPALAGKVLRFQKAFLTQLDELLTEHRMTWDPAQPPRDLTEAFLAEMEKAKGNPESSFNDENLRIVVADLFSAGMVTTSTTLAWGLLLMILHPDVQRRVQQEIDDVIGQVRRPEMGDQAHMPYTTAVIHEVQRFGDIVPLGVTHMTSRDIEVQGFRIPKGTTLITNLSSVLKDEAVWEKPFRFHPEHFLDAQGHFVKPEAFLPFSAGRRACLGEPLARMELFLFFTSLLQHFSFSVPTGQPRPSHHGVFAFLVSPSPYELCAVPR

Row | SMILES | IC50 (CYP2D6) [µM] | fraction unbound at 6 h, 1 µM [1] | fraction unbound at 6 h, 1 µM [2]
1 | C[C@@H]1Cc2c([nH]c3ccccc23)C(c2c(F)cc(N[C@H]3CCN(CCCF)C3)cc2F)N1CC(F)(F)F (stereo in doubt) [Example 4, (S)-N-(3,5-difluoro-4-((1S,3R)-3-methyl-2-(2,2,2-trifluoroethyl)-2,3,4,9-tetrahydro-1H-pyridino[3,4-b]indol-1-yl)phenyl)-1-(3-fluoropropyl)pyrrolidin-3-amine] | 27 | 0.002 | 0.002
2 | C[C@@H]1Cc2c([nH]c3ccccc23)C(c2c(F)cc(N[C@H]3CCN(CCCF)C3)cc2F)N1CC(F)(F)CO (stereo in doubt) [Example 7, 3-((1S,3R)-1-(2,6-difluoro-4-(((S)-1-(3-fluoropropyl)pyrrolidin-3-yl)amino)phenyl)-3-methyl-3,4-dihydro-1H-pyridino [3,4-b]indole-2(9H)-yl)-2,2-difluoropropane-1-ol] | 23 | 0.012 | 0.023
3 | C[C@@H]1Cc2c([nH]c3ccccc23)[C@@H](c2ccc(N[C@H]3CCN(CCCF)C3)cn2)N1CC(F)(F)F [Example 3, N-((S)-1-(3-fluoropropyl)pyrrolidin-3-yl)-6-((1S,3R)-3-methyl-2-(2,2,2-trifluoroethyl)-2,3,4,9-tetrahydro-1H-pyridino[3,4-b]indol-1-yl)pyridine-3-amine] | > 30 | 0.019 | 0.022
